{
  "source": "EPA's ToxRefDB 2",
  "key": {"dog": {"tested_on": "dog", "conditions": "Sub-acute repeat dose toxicity, beagle, Oral, Gavage/Intubation, dose end: 14 day, group: systemic"}, "rat [1]": {"tested_on": "rat", "conditions": "Sub-acute repeat dose toxicity; Oral; Gavage/Intubation; dose end: 14 day; group: systemic; systemic / in life observation / clinical signs / convulsions + systemic / in life observation / clinical signs / reduced activity + …"}, "rat [2]": {"tested_on": "rat", "conditions": "Sub-acute repeat dose toxicity, Oral, Gavage/Intubation, dose end: 7 day, group: systemic"}, "rat [3]": {"tested_on": "rat", "conditions": "Sub-acute repeat dose toxicity, sprague dawley, Oral, Gavage/Intubation, dose end: 30 day, group: systemic"}, "rat [4]": {"tested_on": "rat", "conditions": "Sub-acute repeat dose toxicity, sprague dawley, Oral, Gavage/Intubation, dose end: 14 day, group: systemic"}, "mouse [5]": {"tested_on": "mouse", "conditions": "Carcinogenicity, b6c3f1, Oral, Gavage/Intubation, dose end: 102 week, group: systemic"}, "mouse [6]": {"tested_on": "mouse", "conditions": "Subchronic oral toxicity in rodents, b6c3f1, Gavage/Intubation, dose end: 13 week, group: systemic"}, "rat [7]": {"tested_on": "rat", "conditions": "Subchronic oral toxicity in rodents, fischer, Gavage/Intubation, dose end: 13 week, group: systemic"}, "rat [8]": {"tested_on": "rat", "conditions": "Carcinogenicity, fischer, Oral, Gavage/Intubation, dose end: 102 week, group: systemic"}, "rat [9]": {"tested_on": "rat", "conditions": "Fertility (Segment I), Oral, Gavage/Intubation, dose end: 1 generation, group: parental"}, "rat [10]": {"tested_on": "rat", "conditions": "Sub-acute repeat dose toxicity; Oral; Gavage/Intubation; dose end: 14 day; group: systemic; systemic / in life observation / clinical signs / ataxia + systemic / in life observation / clinical signs / urine staining - perineum + …"}, "primate": {"tested_on": "primate", "conditions": "Subchronic oral toxicity in nonrodent, Gavage/Intubation, dose end: 91 day, group: systemic, systemic / in life observation / body weight / body weight + systemic / in life observation / clinical signs / [other] + systemic / in life …"}, "rat [11]": {"tested_on": "rat", "conditions": "Sub-acute repeat dose toxicity; wistar; Oral; Gavage/Intubation; dose end: 7 day; group: systemic; systemic / clinical chemistry / [other] / [other] + systemic / pathology microscopic / blood / vasculitis"}, "rabbit": {"tested_on": "rabbit", "conditions": "Prenatal developmental toxicity study; Oral; Gavage/Intubation; dose end: 19 GD; group: maternal; systemic / in life observation / clinical signs / abnormal feces + systemic / in life observation / clinical signs / red or crusty deposits …"}, "[12]": {"conditions": "systemic / in life observation / clinical signs / abnormal feces + systemic / in life observation / clinical signs / arrhythmia"}, "[13]": {"conditions": "systemic / in life observation / clinical signs / abnormal feces + systemic / in life observation / clinical signs / arrhythmia + systemic…"}, "[14]": {"conditions": "systemic / clinical chemistry / cholesterol / cholesterol + systemic / clinical chemistry / gamma glutamyl transferase (ggt) / gamma …"}, "[15]": {"conditions": "systemic / clinical chemistry / aspartate aminotransferase (ast/sgot) / aspartate aminotransferase (ast/sgot) + systemic / clinical …"}, "[16]": {"conditions": "systemic / clinical chemistry / [other] / [other] + systemic / in life observation / body weight / body weight gain + systemic / in life …"}, "[17]": {"conditions": "systemic / pathology microscopic / liver / fatty change + systemic / pathology microscopic / liver / hypertrophy"}, "[18]": {"conditions": "systemic / pathology microscopic / kidney / cytomegaly + systemic / pathology microscopic / thyroid gland / hyperplasia"}, "[19]": {"conditions": "systemic / pathology microscopic / kidney / cytomegaly + systemic / pathology microscopic / thyroid gland / hyperplasia + systemic / …"}, "[20]": {"conditions": "systemic / in life observation / body weight / body weight + systemic / pathology microscopic / liver / granuloma + systemic / pathology …"}, "[21]": {"conditions": "systemic / in life observation / body weight / body weight + systemic / in life observation / mortality / mortality + systemic / pathology …"}, "[22]": {"conditions": "systemic / pathology microscopic / intestine large / adenocarcinoma + systemic / pathology microscopic / intestine large / polyp adenomatous…"}, "[23]": {"conditions": "systemic / pathology microscopic / kidney / cytomegaly + systemic / pathology microscopic / liver / necrosis"}, "[24]": {"conditions": "systemic / in life observation / clinical signs / abnormal feces + systemic / in life observation / clinical signs / convulsions + systemic…"}, "[25]": {"conditions": "systemic / in life observation / clinical signs / convulsions + systemic / in life observation / clinical signs / salivation"}},
  "data": [
    {"smiles": "CC[C@H]1CC[C@H](NCc2cc3c(cc2OC)[C@H]2C[C@H]2C(=O)N3C)[C@H](c2ccccc2)N1", "values": [
      {"measurement": "LEL", "setting": "dog; [12]", "value": 3, "unit": "mg/kg/day"},
      {"measurement": "NEL", "setting": "dog; [12]", "value": "< 3", "unit": "mg/kg/day"},
      {"measurement": "LOAEL", "setting": "dog; [13]", "value": "> 15", "unit": "mg/kg/day"},
      {"measurement": "NOAEL", "setting": "dog; [13]", "value": "≥ 15", "unit": "mg/kg/day"},
      {"measurement": "LEL", "setting": "rat [1]", "value": 100, "unit": "mg/kg/day"},
      {"measurement": "LOAEL", "setting": "rat [1]", "value": "> 100", "unit": "mg/kg/day"},
      {"measurement": "NOAEL", "setting": "rat [1]", "value": "≥ 100", "unit": "mg/kg/day"},
      {"measurement": "LOAEL", "setting": "rat [2]; [14]", "value": "> 100", "unit": "mg/kg/day"},
      {"measurement": "NEL", "setting": "rat [2]; [14]", "value": 3, "unit": "mg/kg/day"},
      {"measurement": "NOAEL", "setting": "rat [2]; [14]", "value": "≥ 100", "unit": "mg/kg/day"},
      {"measurement": "LEL", "setting": "rat [2]; systemic / organ weight / liver / absolute", "value": 30, "unit": "mg/kg/day"},
      {"measurement": "LOAEL", "setting": "rat [3]; [15]", "value": "> 100", "unit": "mg/kg/day"},
      {"measurement": "NEL", "setting": "rat [3]; [15]", "value": 3, "unit": "mg/kg/day"},
      {"measurement": "NOAEL", "setting": "rat [3]; [15]", "value": "≥ 100", "unit": "mg/kg/day"},
      {"measurement": "LEL", "setting": "rat [3]; systemic / in life observation / clinical signs / salivation + systemic / organ weight / liver / absolute", "value": 30, "unit": "mg/kg/day"},
      {"measurement": "LOAEL", "setting": "rat [4]; [16]", "value": "> 100", "unit": "mg/kg/day"},
      {"measurement": "NOAEL", "setting": "rat [4]; [16]", "value": "≥ 100", "unit": "mg/kg/day"},
      {"measurement": "LEL", "setting": "rat [4]; [17]", "value": 6, "unit": "mg/kg/day"},
      {"measurement": "NEL", "setting": "rat [4]; [17]", "value": "< 6", "unit": "mg/kg/day"}
    ]},
    {"smiles": "ClC(Cl)Br", "note": "[Bromodichloromethane]", "values": [
      {"measurement": "LOAEL", "setting": "mouse [5]; [18]", "value": 25, "unit": "mg/kg/day"},
      {"measurement": "NOAEL", "setting": "mouse [5]; [18]", "value": "< 25", "unit": "mg/kg/day"},
      {"measurement": "LEL", "setting": "mouse [5]; [19]", "value": 25, "unit": "mg/kg/day"},
      {"measurement": "NEL", "setting": "mouse [5]; [19]", "value": "< 25", "unit": "mg/kg/day"},
      {"measurement": "LEL", "setting": "mouse [6]; systemic / in life observation / body weight / body weight + systemic / pathology microscopic / kidney / necrosis", "value": 100, "unit": "mg/kg/day"},
      {"measurement": "LOAEL", "setting": "mouse [6]; [20]", "value": "> 400", "unit": "mg/kg/day"},
      {"measurement": "NOAEL", "setting": "mouse [6]; [20]", "value": "≥ 400", "unit": "mg/kg/day"},
      {"measurement": "LEL", "setting": "rat [7]; systemic / in life observation / body weight / body weight", "value": 150, "unit": "mg/kg/day"},
      {"measurement": "LOAEL", "setting": "rat [7]; [21]", "value": "> 300", "unit": "mg/kg/day"},
      {"measurement": "NEL", "setting": "rat [7]; [21]", "value": 75, "unit": "mg/kg/day"},
      {"measurement": "NOAEL", "setting": "rat [7]; [21]", "value": "≥ 300", "unit": "mg/kg/day"},
      {"measurement": "LOAEL", "setting": "rat [8]; [22]", "value": "> 100", "unit": "mg/kg/day"},
      {"measurement": "NOAEL", "setting": "rat [8]; [22]", "value": "≥ 100", "unit": "mg/kg/day"},
      {"measurement": "LEL", "setting": "rat [8]; [23]", "value": 50, "unit": "mg/kg/day"},
      {"measurement": "NEL", "setting": "rat [8]; [23]", "value": "< 50", "unit": "mg/kg/day"}
    ]},
    {"smiles": "Cc1cc2c3c(c1)C(c1ccccc1)=N[C@@H](NC(=O)c1ccncc1)C(=O)N3CC2", "note": "[CI-1018]", "values": [
      {"measurement": "LOAEL", "setting": "rat [9]; [24]", "value": "> 300", "unit": "mg/kg/day"},
      {"measurement": "NOAEL", "setting": "rat [9]; [24]", "value": "≥ 300", "unit": "mg/kg/day"},
      {"measurement": "LEL", "setting": "rat [9]; [25]", "value": 30, "unit": "mg/kg/day"},
      {"measurement": "NEL", "setting": "rat [9]; [25]", "value": "< 30", "unit": "mg/kg/day"},
      {"measurement": "LEL", "setting": "rat [10]", "value": 1000, "unit": "mg/kg/day"},
      {"measurement": "LOAEL", "setting": "rat [10]", "value": "> 1000", "unit": "mg/kg/day"},
      {"measurement": "NEL", "setting": "rat [10]", "value": 300, "unit": "mg/kg/day"},
      {"measurement": "NOAEL", "setting": "rat [10]", "value": "≥ 1000", "unit": "mg/kg/day"},
      {"measurement": "LEL", "setting": "primate", "value": 740, "unit": "mg/kg/day"},
      {"measurement": "LOAEL", "setting": "primate", "value": "> 740", "unit": "mg/kg/day"},
      {"measurement": "NEL", "setting": "primate", "value": "< 740", "unit": "mg/kg/day"},
      {"measurement": "NOAEL", "setting": "primate", "value": "≥ 740", "unit": "mg/kg/day"},
      {"measurement": "LEL", "setting": "rat [11]", "value": 375, "unit": "mg/kg/day"},
      {"measurement": "LOAEL", "setting": "rat [11]", "value": "> 750", "unit": "mg/kg/day"},
      {"measurement": "NEL", "setting": "rat [11]", "value": 75, "unit": "mg/kg/day"},
      {"measurement": "NOAEL", "setting": "rat [11]", "value": "≥ 750", "unit": "mg/kg/day"},
      {"measurement": "LOAEL", "setting": "rabbit", "value": "> 100", "unit": "mg/kg/day"},
      {"measurement": "NEL", "setting": "rabbit", "value": 10, "unit": "mg/kg/day"},
      {"measurement": "NOAEL", "setting": "rabbit", "value": "≥ 100", "unit": "mg/kg/day"}
    ]}
  ]
}
